Assay results: US8580762B2, “Substituted purine and 7-deazapurine compounds” (Epizyme, Inc., priority 2010, dated 2013)

The compounds below were run against DOT1L(1-416) (Homo sapiens, UniProt Q8TEK3) (assay: Determination of IC50: DOT1L(1-416) methyltransferase assay, 3H-SAM, oligonucleosome substrate, Flashplate). Settings: class symbols; read-out: DOT1L IC50.
Chain of DOT1L(1-416) (Q8TEK3 1-416): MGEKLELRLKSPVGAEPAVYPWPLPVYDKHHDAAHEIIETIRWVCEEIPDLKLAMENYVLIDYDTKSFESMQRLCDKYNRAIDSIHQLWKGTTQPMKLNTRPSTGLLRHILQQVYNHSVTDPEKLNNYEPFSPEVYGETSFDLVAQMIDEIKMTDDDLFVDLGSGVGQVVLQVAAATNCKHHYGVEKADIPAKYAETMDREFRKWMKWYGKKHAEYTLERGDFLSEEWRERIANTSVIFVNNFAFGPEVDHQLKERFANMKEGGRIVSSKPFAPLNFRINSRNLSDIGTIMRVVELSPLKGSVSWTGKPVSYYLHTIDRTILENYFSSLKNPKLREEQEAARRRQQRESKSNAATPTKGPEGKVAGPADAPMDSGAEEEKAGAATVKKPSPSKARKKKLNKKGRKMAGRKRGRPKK
Assay type: biochemical
Summary of the method: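 Compounds in 10-point 3-fold DMSO dilutions were tested in reactions started with substrate mix of 200 nM [3H]-SAM, 600 nM unlabeled SAM and 20 nM oligonucleosome. Reactions ran 120 min at room temperature and were quenched with 100 μM SAM. Labeled substrate was captured on streptavidin Flashplates and counted by scintillation to give IC50.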
`CC(C)N(CC1CC(Cc2nc3cc(C(C)(C)C)ccc3[nH]2)C1)C[C@H]1C[C@@H](n2ccc3c(N)ncnc32)[C@H](O)[C@@H]1O` (stereo partly drawn) [Compound 22, (1R,2S,3R,5R)-3-{4-amino-7H-pyrrolo[2,3-d]pyrimidin-7-yl}-5-{[({3-[(5-tert-butyl-1H-1,3-benzodiazol-2-yl)methyl]cyclobutyl}methyl)(propan-2-yl)amino]methyl}cyclopentane-1,2-diol] gave an IC50 of 0.1 to 1 µM.
With `CN(C[C@H]1C[C@@H](n2ccc3c(N)ncnc32)[C@H](O)[C@@H]1O)[C@H]1C[C@H](CCc2nc3cc(C4(C)CCC4)ccc3[nH]2)C1` [Compound 39] the IC50 was < 0.1 µM.
`CC(C)N(C[C@H]1O[C@@H](n2cnc3c(N)ncnc32)[C@H](O)[C@@H]1O)C1CC(CCc2nc3cc(C(C)(C)C#N)ccc3[nH]2)C1` (stereo partly drawn) [Compound 120, 2-(2-(2-(3-((((2R,3S,4R,5R)-5-(6-amino-9H-purin-9-yl)-3,4-dihydroxytetrahydro-furan-2-yl)methyl)(isopropyl)amino)cyclobutyl)ethyl)-1H-benzo[d]imidazol-5-yl)-2-methylpropanenitrile] was tested, and the IC50 was < 0.1 µM.
`CC(C)(C)c1ccc2[nH]c(CCC3CC(N(C[C@H]4O[C@@H](n5cnc6c(N)ncnc65)[C@H](O)[C@@H]4O)CC(F)(F)F)C3)nc2c1` (stereo partly drawn) [Compound 82, (2R,3R,45,5R)-2-(6-amino-9H-purin-9-yl)-5-(((3-(2-(5-(tert-butyl)-1H-benzo[d]imidazol-2-yl)ethyl)cyclobutyl) (2,2,2-trifluoroethyl)amino)methyl)tetrahydrofuran-3,4-diol] showed an IC50 of 0.1 to 1 µM.
Work on `CN(CC1CC(Cc2nc3cc(C(F)(F)F)ccc3[nH]2)C1)C[C@H]1C[C@@H](n2ccc3c(N)ncnc32)[C@H](O)[C@@H]1O` (stereo partly drawn) [Compound 18, (1R,2S,3R,5R)-3-{4-amino-7H-pyrrolo[2,3-d]pyrimidin-7-yl}-5-({methyl[(3-{[5-(trifluoromethyl)-1H-1,3-benzodiazol-2-yl]methyl}cyclobutyl)methyl]amino}methyl)cyclopentane-1,2-diol] yielded an IC50 of 0.1 to 1 µM.
In the case of `CC(C)N(C[C@H]1O[C@@H](n2cnc3c(N)ncnc32)[C@H](O)[C@@H]1O)[C@H]1C[C@@H](CCc2nc3cc(Cl)c(C(F)(F)F)cc3[nH]2)C1` [Compound 5], the IC50 is reported as < 0.1 µM.
In the case of `CN(C[C@H]1O[C@@H](n2ccc3c(N)ncnc32)[C@H](O)[C@@H]1O)C1CC(Cc2nc3cc(C(C)(C)C)ccc3[nH]2)C1` (stereo partly drawn) [Compound 6, (2R,3R,4S,5R)-2-(4-amino-7H-pyrrolo[2,3-d]pyrimidin-7-yl)-5-(((3-((5-(tert-butyl)-1H-benzo[d]imidazol-2-yl)methyl)cyclobutyl)(methyl)amino)methyl)tetrahydrofuran-3,4-diol], the IC50 is reported as < 0.1 µM.
In the case of `CC(C)N(C[C@H]1O[C@@H](n2cnc3c(N)ncnc32)[C@H](O)[C@@H]1O)[C@H]1C[C@H](CCc2nc3cc(C4CC4)ccc3[nH]2)C1` [Compound 119, (2R,3R,4S,5R)-2-(6-amino-9H-purin-9-yl)-5-((((1s,3R)-3-(2-(5-cyclopropyl-1H-benzo[d]imidazol-2-yl)ethyl)cyclobutyl) (isopropyl)amino)methyl)tetrahydrofuran-3,4-diol], the IC50 is reported as < 0.1 µM.
In the case of `CC(C)N(C[C@H]1O[C@@H](n2cnc3c(N)ncnc32)[C@H](O)[C@@H]1O)[C@H]1C[C@@H](CCc2nc3cc(CC(F)(F)F)ccc3[nH]2)C1` [Compound 124, (2R,3R,4S,5R)-2-(6-amino-9H-purin-9-yl)-5-((isopropyl((1r,3S)-3-(2-(5-(2,2,2-trifluoroethyl)-1H-benzo[d]imidazol-2-yl)ethyl)cyclobutyl)amino)methyl) tetrahydrofuran-3,4-diol], the IC50 is reported as < 0.1 µM.
`CN(C[C@H]1O[C@@H](n2cnc3c(N)ncnc32)[C@H](O)[C@@H]1O)[C@H]1C[C@@H](CCc2nc3cc(C4CC4)ccc3[nH]2)C1` [Compound 133, (2R,3R,4S,5R)-2-(6-amino-9H-purin-9-yl)-5-((((1r,3S)-3-(2-(5-cyclopropyl-1H-benzo[d]imidazol-2-yl)ethyl)cyclobutyl) (methyl)amino)methyl) tetrahydrofuran-3,4-diol] was tested, and the IC50 was < 0.1 µM.
In the case of `CC(C)N(C[C@@H]1C[C@@H](O)[C@H](n2ccc3c(N)ncnc32)C1)[C@H]1C[C@H](CCc2nc3cc(Cl)c(C(F)(F)F)cc3[nH]2)C1` [Compound 103, (1R,2R,4S)-2-(4-amino-7H-pyrrolo[2,3-d]pyrimidin-7-yl)-4-((((1s,3S)-3-(2-(5-chloro-6-(trifluoromethyl)-1H-benzo[d]imidazol-2-yl)ethyl)cyclobutyl) (isopropyl)amino)methyl)cyclopentanol], the IC50 is reported as 1 to 10 µM.
For `CC(C)N(C[C@H]1O[C@@H](n2cnc3c(N)ncnc32)[C@H](O)[C@@H]1O)C1CC(CCc2nc3cc(C4CCC4)ccc3[nH]2)C1` (stereo partly drawn) [Compound 67, (2R,3R,4S,5R)-2-(6-amino-9H-purin-9-yl)-5-[({3-[2-(5-cyclobutyl-1H-1,3-benzodiazol-2-yl)ethyl]cyclobutyl}(propan-2-yl)amino)methyl]oxolane-3,4-diol], the IC50 was < 0.1 µM.
In the case of `CN(C[C@H]1C[C@@H](n2ccc3c(N)ncnc32)[C@H](O)[C@@H]1O)[C@H]1C[C@@H](CCc2nc3cc(Br)ccc3[nH]2)C1` [Compound 47, (1R,2S,3R,5R)-3-(4-amino-7H-pyrrolo[2,3-d]pyrimidin-7-yl)-5-((((1r,38)-3-(2-(5-bromo-1H-benzo[d]imidazol-2-yl)ethyl)cyclobutyl)(methyl)amino)methyl)cyclopentane-1,2-diol], the IC50 is reported as < 0.1 µM.
`CCN(C[C@H]1O[C@@H](n2cnc3c(N)ncnc32)[C@H](O)[C@@H]1O)C1CC(CCc2nc3cc(C(C)(C)C)ccc3[nH]2)C1` (stereo partly drawn) [Compound 79, (2R,3R,4S,5R)-2-(6-amino-9H-purin-9-yl)-5-(((3-(2-(5-(tert-butyl)-1H-benzo[d]imidazol-2-yl)ethyl)cyclobutyl) (ethyl)amino)methyl) tetrahydrofuran-3,4-diol] was tested, and the IC50 was < 0.1 µM.
In the case of `CC(C)(C)c1ccc2[nH]c(CCC3CC(N(C[C@H]4C[C@@H](n5ccc6c(N)ncnc65)[C@H](O)[C@@H]4O)C4CCC4)C3)nc2c1` (stereo partly drawn) [Compound 43, (1R,2S,3R,5R)-3-(4-amino-7H-pyrrolo[2,3-d]pyrimidin-7-yl)-5-(((3-(2-(5-(tert-butyl)-1H-benzo[d]imidazol-2-yl)ethyl)cyclobutyl)(cyclobutyl)amino)methyl)cyclopentane-1,2-diol], the IC50 is reported as < 0.1 µM.
For `CCN(C[C@H]1O[C@@H](n2ccc3c(N)ncnc32)[C@H](O)[C@@H]1O)[C@H]1C[C@@H](CCc2nc3cc(C(C)(C)C)ccc3[nH]2)C1` [Compound 89, (2R,3R,4S,5R)-2-(4-amino-7H-pyrrolo[2,3-d]pyrimidin-7-yl)-5-((((1r,3S)-3-(2-(5-(tert-butyl)-1H-benzo[d]imidazol-2-yl)ethyl)cyclobutyl) (ethyl)amino)methyl) tetrahydrofuran-3,4-diol], the IC50 was < 0.1 µM.
With `CN(C[C@H]1C[C@@H](n2ccc3c(N)ncnc32)[C@H](O)[C@@H]1O)C1CC(CCc2nc3cc(C4(C)CCC4)ccc3[nH]2)C1` (stereo partly drawn) [Compound 29, (1R,2S,3R,5R)-3-(4-amino-7H-pyrrolo[2,3-d]pyrimidin-7-yl)-5-((methyl(3-(2-(5-(1-methylcyclobutyl)-1H-benzo[d]imidazol-2-yl)ethyl)cyclobutyl)amino)methyl)cyclopentane-1,2-diol] the IC50 was < 0.1 µM.

Same assay, conditions: read-out: DOT1L IC50
`CC(C)N(C[C@H]1O[C@@H](n2cnc3c(N)ncnc32)[C@H](O)[C@@H]1O)[C@H]1C[C@@H](CCc2nc3cc(Cl)c(C(F)(F)F)cc3[nH]2)C1` [Compound 5] showed an IC50 of 0.00059 µM.
